# Data as given in patent US20260207565A1, “COMPOUNDS THAT INHIBIT PKMYT1” (Exelixis, Inc., priority 2022, published 2026).
# Assays:
# [1] = system: phosphorylation of CDK1 at Thr14 in HCC1806 cells; experiment: Cell lysate AlphaLISA assay measuring inhibition of phosphorylation of CDK1 Thr14; assay type: cell-based; conditions: Homo sapiens, HCC1806, 4 h, compounds incubated 4 hours, AlphaLISA SureFire Ultra CDK1 Thr14, read-out: Cellular IC50
# Procedure: (§1) Biochemical IC50 values were determined via ADP-Glo™ assay. Cellular IC50 values were determined via AlphaLISA assay.
# Cell lysate AlphaLISA® assay measuring inhibition of phosphorvlation of CDK1 Thr14. Inhibition of phosphorylation of CDK1 at Thr14 was determined using AlphaLISAn SureFire® Ultra™ Kit from Perkin Elmer (ALSU-PCDK1-A10K). HCC1806 cells were seeded at 2K cells per well (50 μl/well) in 384-well plates (Corning 3570) and stored overnight at 37° C. and 5% CO2. The following day, the compounds dissolved in DMSO were introduced to the cells and incubated for 4 hours at 37° C. and 5% CO2. The cells were then washed with PBS using Blue® Washer and 10 μl of lysis buffer containing protease inhibitor was added. The plate was placed on an orbital shaker (at 4° C.) for 30 minutes and stored overnight at −80° C. for complete lysing. The next day, the plates were thawed at room temperature for at least 30 min. Reagents were prepared in a dimmed light setting (<100 lumens). The assay was run by first adding 5 μl of the acceptor mix (reaction buffer 1: reaction buffer 2:activation buffer:acceptor beads 47:47:4:2), covering the plate with foil, shaking for 2 minutes, and incubating at RT for 60 minutes. The donor mix (dilution buffer:donor beads 47:3) was then added at 5 μl per well, placed on the shaker for 2 minutes and incubated at RT for 60 minutes before reading the plates on a PHERAstar® plate reader. The results were normalized to DMSO (0% Inhibition) and 3 μM of reference compound.
# PKMYT1 = molecular target: T1, PKMYT1 (Homo sapiens, UniProt Q99640); experiment: ADP-Glo PKMYT1 ATP-depletion assay; conditions: 50 nM PKMYT1, 13.3 nM CDK1, 88 μM ATP, 120 minutes at RT, read-out: Biochemical IC50
# T1 construct: PKMYT1 (93 kD, full length, N-terminal GST tag from Signal Chem); GST (N); purchased Signal Chem
# T1 sequence (Q99640 1-499): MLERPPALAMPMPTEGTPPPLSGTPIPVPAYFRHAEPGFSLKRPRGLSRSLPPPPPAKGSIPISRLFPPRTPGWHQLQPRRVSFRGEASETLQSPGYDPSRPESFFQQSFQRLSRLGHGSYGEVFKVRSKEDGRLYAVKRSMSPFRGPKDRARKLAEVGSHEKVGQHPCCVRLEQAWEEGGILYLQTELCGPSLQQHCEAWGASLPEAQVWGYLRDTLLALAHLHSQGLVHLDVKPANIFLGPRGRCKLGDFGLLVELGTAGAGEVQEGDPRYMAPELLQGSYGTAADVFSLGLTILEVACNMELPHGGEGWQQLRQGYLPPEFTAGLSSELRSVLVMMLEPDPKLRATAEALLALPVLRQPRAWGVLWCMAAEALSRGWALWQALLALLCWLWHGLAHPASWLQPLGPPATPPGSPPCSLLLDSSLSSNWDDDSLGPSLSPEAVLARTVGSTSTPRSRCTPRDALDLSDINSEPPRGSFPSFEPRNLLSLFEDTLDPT
# Procedure: as §1
# ADP-Glo™ PKMYT1 ATP-depletion assay. The activity of PKMYT1 is measured using a luciferase-luciferin based ATP detection reaction to quantify ATP depletion resulting from kinase-catalyzed phosphoryl transfer to CDK1 or autophosphorylation of PKMYT1. The ADP generated as a byproduct of the reaction is converted to ATP and used to drive a luciferase reaction. Test compounds were dissolved in DMSO and dispensed into Corning 3824 384-well plates prior to the experiment such that the final DMSO concentration was <10%. To the compounds was added 3 μL of PKMYT1 (93 kD, full length, N-terminal GST tag from Signal Chem). The reaction was started by the addition of 2 μL of CDK1 (58 kDa, full length, N-terminal GST tag from Signal Chem) and ATP in assay buffer (50 mM Hepes, 40 mM NaCl, 10 mM MgCl2, 1 mM DTT, 0.1 mg/mL BSA, 2.5 mM MnCl2). Final assay concentrations were 50 nM PKMYT1, 13.3 nM CDK1, and 88 μM ATP. Plates were centrifuged for 1 minute at 1000 RPM and incubated at RT for 120 minutes. After the incubation period, ADP-Glo™ reagent was added and the plates were incubated for another 40 minutes before finally adding the kinase detection reagent, 30 minutes after the addition, plates were placed on a PHERAstar® plate reader and read using the Luminescence Protocol, integration time at 0.5 seconds.
SMILES,IC50 [1] [nM],IC50 (PKMYT1) [nM]
"Cc1ccc(O)c(C)c1-c1c(N)c(C(N)=O)nc2c1nc(C)n2C(C)C (single isomer, unassigned) [Compound 84, (P)-6-amino-7-(3-hydroxy-2,6-dimethylphenyl)-3-isopropyl-2-methyl-3H-imidazo[4,5-b]pyridine-5-carboxamide]",< 50,< 50
"Cc1ccc(O)c(C)c1-c1c(N)c(C(N)=O)nc2c1ncn2C [Compound 1, 6-Amino-7-(3-hydroxy-2,6-dimethylphenyl)-3-methyl-3H-imidazo[4,5-b]pyridine-5-carboxamide]",50 to 500,< 50
"Cn1cc(C#N)c2c(-c3cccc(O)c3)c(N)c(C(N)=O)nc21 [Compound 7, 5-Amino-3-cyano-4-(3-hydroxyphenyl)-1-methyl-1H-pyrrolo[2,3-b]pyridine-6-carboxamide]",50 to 500,< 50
"Cc1c(F)cncc1-c1c(N)c(C(N)=O)nc2c1c(C#N)cn2C [Compound 8, 5-Amino-3-cyano-4-(5-fluoro-4-methylpyridin-3-yl)-1-methyl-1H-pyrrolo[2,3-b]pyridine-6-carboxamide]",50 to 500,< 50
Cc1c(Cl)cncc1-c1c(N)c(C(N)=O)nc2c1c(C#N)c(C)n2C [Compound 12],50 to 500,< 50
Cc1ccc(O)c(C)c1-c1c(N)c(C(N)=O)nc2c1c(C#N)cn2C [Compound 13],< 50,< 50
Cc1c(O)cccc1-c1c(N)c(C(N)=O)nc2c1c(C#N)c(C)n2CC(F)(F)F [Compound 14],< 50,< 50
"Cc1ccc(O)c(C)c1-c1cc(C(N)=O)nc2c1cnn2C [Compound 17, 4-(3-hydroxy-2,6-dimethylphenyl)-1-methyl-pyrazolo[3,4-b]pyridine-6-carboxamide]",≥ 5000,1000 to 5000
"Cc1ccc(O)c(C)c1-c1cc(C(N)=O)nc2cnn(C)c12 [Compound 18, 7-(3-hydroxy-2,6-dimethylphenyl)-1-methyl-pyrazolo[4,3-b]pyridine-5-carboxamide]",≥ 5000,1000 to 5000
"CNC(=O)c1cc(-c2c(C)ccc(O)c2C)c2[nH]ncc2n1 [Compound 19, 7-(3-hydroxy-2,6-dimethylphenyl)-N-methyl-1H-pyrazolo[4,3-b]pyridine-5-carboxamide]",≥ 5000,≥ 5000
"Cc1ccc(O)c(C)c1-c1cc(C(N)=O)nc2c1c(C#N)cn2C [Compound 22, 3-cyano-4-(3-hydroxy-2,6-dimethylphenyl)-1-methyl-pyrrolo[2,3-b]pyridine-6-carboxamide]",50 to 500,< 50
Cc1ccc(O)c(C)c1-c1cc(C(N)=O)nc2c1c(Br)cn2C [Compound 24],1000 to 5000,50 to 500
"Cc1c(O)cccc1-c1cc(C(N)=O)nc2c1c(C#N)cn2C [Compound 28, 3-cyano-4-(3-hydroxy-2-methylphenyl)-1-methyl-pyrrolo[2,3-b]pyridine-6-carboxamide]",500 to 1000,50 to 500
"CCn1cc(C#N)c2c(-c3c(C)ccc(O)c3C)cc(C(N)=O)nc21 [Compound 29, 3-cyano-1-ethyl-4-(3-hydroxy-2,6-dimethylphenyl)pyrrolo[2,3-b]pyridine-6-carboxamide]",< 50,< 50
"Cc1ccc(O)c(C)c1-c1cc(C(N)=O)cc2c1cnn2C [Compound 35, 4-(3-hydroxy-2,6-dimethylphenyl)-1-methyl-indazole-6-carboxamide]",≥ 5000,1000 to 5000
"Cc1ccc(O)c(C)c1-c1cc(C(N)=O)cc2nn(C)cc12 [Compound 36, 4-(3-hydroxy-2,6-dimethylphenyl)-2-methyl-indazole-6-carboxamide]",≥ 5000,1000 to 5000
"Cc1ccc(O)c(C)c1-c1cc(C(N)=O)cc2cn[nH]c12 [Compound 37, 7-(3-hydroxy-2,6-dimethylphenyl)-1H-indazole-5-carboxamide]",1000 to 5000,1000 to 5000

# The next lines start with the values.
IC50 [1] [nM],IC50 (PKMYT1) [nM],SMILES
< 50,< 50,"CCn1cc(-c2cn[nH]c2)c2c(-c3c(C)ccc(O)c3C)cc(C(N)=O)nc21 (single isomer, unassigned) [Compound 69, (P)-1-Ethyl-4-(3-hydroxy-2,6-dimethylphenyl)-3-(1H-pyrazol-4-yl)-1H-pyrrolo[2,3-b]pyridine-6-carboxamide]"
< 50,< 50,"Cc1ccc(O)c(C)c1-c1c(N)c(C(N)=O)nc2c1ncn2C1CC1 (single isomer, unassigned) [Compound 77, (P)-6-amino-3-cyclopropyl-7-(3-hydroxy-2,6-dimethylphenyl)-3H-imidazo[4,5-b]pyridine-5-carboxamide]"
< 50,< 50,"CCn1cc(C#N)c2c(-c3c(C)ccc(O)c3C)cc(C(N)=O)nc21 (single isomer, unassigned) [Compound 79]"
< 50,< 50,"CCn1cc(C#N)c2c(-c3ccc(C)c(O)c3C)c(N)c(C(N)=O)nc21 (single isomer, unassigned) [Compound 82, (M)-5-amino-3-cyano-1-ethyl-4-(3-hydroxy-2,4-dimethylphenyl)-1H-pyrrolo[2,3-b]pyridine-6-carboxamide]"
< 50,< 50,"Cc1ccc(O)c(C)c1-c1c(N)c(C(N)=O)nc2c1ncn2C(C)C (single isomer, unassigned) [Compound 83, (P)-6-amino-7-(3-hydroxy-2,6-dimethylphenyl)-3-isopropyl-3H-imidazo[4,5-b]pyridine-5-carboxamide]"
50 to 500,< 50,"Cc1c(O)cccc1-c1c(N)c(C(N)=O)nc2c1c(C#N)c(C)n2C [Compound 9, 5-amino-3-cyano-4-(3-hydroxy-2-methylphenyl)-1,2-dimethyl-1H-pyrrolo[2,3-b]pyridine-6-carboxamide]"
500 to 1000,< 50,"Cc1ccc(O)c(C)c1-c1c(N)c(C(N)=O)cc2c1nc(C)n2C [Compound 15, 5-amino-4-(3-hydroxy-2,6-dimethylphenyl)-1,2-dimethyl-1H-benzo[d]imidazole-6-carboxamide]"
≥ 5000,1000 to 5000,"Cc1ccc(O)c(C)c1-c1cc(C(N)=O)nc2cn[nH]c12 [Compound 16, 7-(3-hydroxy-2,6-dimethylphenyl)-1H-pyrazolo[4,3-b]pyridine-5-carboxamide]"
≥ 5000,≥ 5000,Cc1ccc(O)c(C)c1-c1cc(C(=O)N(C)C)nc2cn[nH]c12 [Compound 20]
≥ 5000,500 to 1000,"Cc1ccc(O)c(C)c1-c1cc(C(N)=O)nc2c1ccn2C [Compound 21, 4-(3-hydroxy-2,6-dimethylphenyl)-1-methyl-pyrrolo[2,3-b]pyridine-6-carboxamide]"
1000 to 5000,≥ 5000,CNC(=O)c1cc(-c2c(C)ccc(O)c2C)c2[nH]ncc2c1 [Compound 38]
1000 to 5000,≥ 5000,Cc1ccc(O)c(C)c1-c1cc(C(=O)N(C)C)cc2cn[nH]c12 [Compound 39]
≥ 5000,≥ 5000,"Cc1ccc(O)c(C)c1-c1cc(C(N)=O)cc2cnn(C)c12 [Compound 40, 7-(3-hydroxy-2,6-dimethylphenyl)-1-methyl-indazole-5-carboxamide]"
